Reference: PubChem BioAssay (NCI)
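Interpolation was linear, between the two tested concentrations surrounding the appropriate level; five concentrations were tested over 48 hours in 96-well plates. GI50 is the concentration that inhibits growth by half. The concentration for full growth arrest is given as TGI.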

Assays:
Test in all cases: DTP human tumour cell line panel, 48 h
[1] = test system: HL-60(TB) leukemia
[2] = test system: HCC-2998 colon
[3] = test system: SK-MEL-28 melanoma
[4] = test system: K-562 leukemia
[5] = test system: SR leukemia
[6] = test system: UACC-62 melanoma
[7] = test system: OVCAR-5 ovarian
[8] = test system: M14 melanoma
[9] = test system: MALME-3M melanoma
[10] = test system: CAKI-1 renal

Compound	TGI [1]	TGI [2]	TGI [3]	TGI [4]	TGI [5]	TGI [6]	TGI [7]	TGI [8]	TGI [9]	TGI [10]	GI50 [1]	GI50 [2]	GI50 [3]	GI50 [4]	GI50 [5]	GI50 [6]	GI50 [7]	GI50 [8]	GI50 [9]	GI50 [10]
Cc1ccc(C2=CC(=O)OC(C[P+](c3ccccc3)(c3ccccc3)c3ccccc3)(c3ccccc3)O2)cc1 (stereo unspecified)	47.3 µM	38.2 µM	33.5 µM	> 100 µM	61.2 µM	30.5 µM	42.7 µM	32 µM	30.5 µM	29.3 µM										
N#CC(C#N)=C1SC(=Nc2ccccc2)C(=Nc2ccccc2)N1c1ccccc1	> 24.6 µM	> 72 µM	> 58 µM	7.12 µM	> 26.2 µM	14.2 µM	47.3 µM	54.7 µM	67.6 µM	> 56.3 µM										
Cn1c(SCc2ccc(F)cc2)nnc1C12CC3CC(CC(C3)C1)C2	28.6 µM	> 100 µM	86.2 µM	> 100 µM	93.9 µM	> 100 µM	> 100 µM	71.8 µM	60.8 µM	> 100 µM										
COc1cc(O)c2c(c1)C(=O)c1cc3c(c(O)c1C2=O)C(OC1OC(C)C(OC)C(O)C1OC)C(OC)C(C)(O)C3=O (stereo unspecified)	> 100 µM	17.4 µM	22.1 µM	19.4 µM	9.16 µM		33.6 µM	9.61 µM	5.85 µM	11 µM										
C[C@H](CCC(=O)O)[C@H]1CC[C@H]2[C@@H]3C(=O)C[C@@H]4C[C@H](O)CC[C@]4(C)[C@H]3C[C@H](O)[C@]12C	> 100 µM	> 100 µM	> 100 µM	> 100 µM	> 100 µM	> 100 µM	> 100 µM	> 100 µM	> 100 µM	> 100 µM										
COc1ccc(C2c3cn[nH]c3CC3CCCCC32)cc1 (stereo unspecified)	61.2 µM	35 µM	33.4 µM	98.6 µM	57.1 µM	24.6 µM	34.8 µM	36.6 µM	38.4 µM	27.3 µM										
C/C(=N\N=C1/C(=O)OC(c2ccccc2)=C1C(=O)c1ccccc1)c1ccc([N+](=O)[O-])cc1	> 100 µM	> 100 µM	> 100 µM	> 100 µM	34.6 µM	> 100 µM	> 100 µM	> 100 µM	> 100 µM	> 100 µM										
Cc1c2cc[n+](C)c(C)c2cc2c1[nH]c1ccccc12	82.1 µM	32.2 µM	26.4 µM	61.3 µM	> 100 µM	48.8 µM	82.6 µM	> 100 µM	14.2 µM	> 91.9 µM										
CCOC(=O)c1cccc(N=Nc2nc[nH]c2/C=C/C(=O)OC)c1	53.4 µM	28.2 µM	> 100 µM	> 100 µM	12 µM	> 100 µM	> 100 µM	49.6 µM	71.8 µM	> 100 µM										
C[n+]1c(/C=C/c2c(O)ccc3ccccc23)ccc2ccccc21	13.4 µM	13.4 µM	15.1 µM	13.4 µM	3.31 µM	12.2 µM	15.2 µM	12.8 µM	12.7 µM	12.3 µM	5.7 µM	6.63 µM	7.91 µM	2.22 µM	1.21 µM	5.77 µM	7.19 µM	5.8 µM	5.3 µM	5.39 µM
Cc1ccc(S(=O)(=O)n2c3c(c4ccccc42)CCN2C[C@H]([C@H](C)Br)CC[C@@H]32)cc1	> 100 µM	> 100 µM	> 100 µM	> 100 µM	> 100 µM	> 100 µM	> 100 µM	> 100 µM	> 100 µM	> 100 µM										
O=C(O)c1ccccc1CC(Cc1ccc2c(c1)CCC2)C(=O)O (stereo unspecified)	> 100 µM	> 100 µM	> 100 µM	> 100 µM	> 100 µM		> 100 µM	> 100 µM	> 100 µM	> 100 µM										
CC(c1ccccc1)N1CCN(C(C)c2ccccc2)CC1 (stereo unspecified)	> 100 µM	44.6 µM	95.4 µM	> 100 µM	> 100 µM	> 100 µM	> 100 µM	53 µM	> 100 µM	> 100 µM										
CC(=O)NC1C(OCc2ccccc2)OC(CO)C(O)C1OCC(=O)N[C@@H](C)C(=O)N[C@H](CCC(=O)NCCCNc1c2ccccc2nc2cccc([N+](=O)[O-])c12)C(N)=O (stereo partly specified)	> 49.7 µM	0.0301 µM	0.751 µM	> 39.8 µM	46.7 µM	0.0601 µM	5.8 µM	0.209 µM	0.129 µM	0.334 µM										
O=C1NC2c3c(I)sc(I)c3C(O)C2O1 (stereo unspecified)	> 100 µM	> 100 µM	> 100 µM	> 100 µM	> 100 µM	> 100 µM	> 100 µM	> 100 µM	> 100 µM	> 100 µM										
NCCCN1c2ccccc2Sc2ccc(Cl)cc21	> 10 µM	4.2 µM	> 10 µM	> 8.41 µM	> 8.89 µM	> 10 µM	> 9.34 µM	3.21 µM	> 10 µM	> 10 µM										

Compound	TGI [1]	TGI [2]	TGI [3]	TGI [4]	TGI [5]	TGI [6]	TGI [7]	TGI [8]	TGI [9]	TGI [10]	GI50 [1]	GI50 [2]	GI50 [3]	GI50 [4]	GI50 [5]	GI50 [6]	GI50 [7]	GI50 [8]	GI50 [9]	GI50 [10]
Cc1cc(/N=C/c2ccc(N(C)C)cc2)n(-c2ccccc2)n1	> 100 µM	61.7 µM	> 100 µM	> 100 µM	> 100 µM	> 100 µM	> 100 µM	> 100 µM	> 100 µM	> 100 µM										
O=c1[nH][nH]c(=O)n1CCCCCCn1c(=O)[nH][nH]c1=O	> 100 µM	> 100 µM	> 100 µM	> 100 µM	> 100 µM	> 100 µM	> 100 µM	> 100 µM	> 100 µM	> 100 µM										
C=C1C(=O)CC2C1CC(=O)/C(C)=C/CCC(C)(O)C2O (stereo unspecified)	10.1 µM	17.1 µM	33.3 µM	15.7 µM	> 37.6 µM	14.8 µM	27.7 µM	> 31.2 µM	3.01 µM	3.37 µM										
NS(=O)(=O)c1ccc(NC(=S)/N=C/C2=C(O)c3ccccc3C2=O)cc1	> 100 µM	> 100 µM	> 100 µM	> 100 µM	> 100 µM	> 100 µM	> 100 µM	> 100 µM	> 100 µM	> 100 µM										
Clc1ccc(-c2nnc3sc4nc5ccccc5c-4nn23)c(Cl)c1	> 100 µM	> 100 µM	> 100 µM	> 100 µM	> 100 µM	> 100 µM	> 100 µM	> 100 µM	> 100 µM	> 100 µM										
O=C(O)C(Cl)(Cl)Cl	> 100 µM	> 100 µM	> 100 µM	> 100 µM	> 100 µM		> 100 µM	> 100 µM	> 100 µM	> 100 µM										
COc1ccc(N2C(=O)CC(=O)N(NC(=O)C(C)Oc3ccccc3C)C2=S)cc1 (stereo unspecified)	> 100 µM	> 100 µM	> 100 µM	> 100 µM	> 100 µM	> 100 µM	> 100 µM	> 100 µM	> 100 µM	> 100 µM										
O=C1OC(C2Cc3ccc4ccccc4c3C2=O)c2ccccc21 (stereo unspecified)	> 100 µM	> 100 µM	> 100 µM	> 100 µM	> 100 µM	> 100 µM	> 100 µM	> 100 µM	> 100 µM	> 100 µM										
O=C1CC2(CCC(O)(c3ccc4ccccc4c3)C(C(=O)c3ccc4ccccc4c3)C2)C(=O)c2ccccc2N1 (stereo unspecified)	> 100 µM	> 100 µM	> 100 µM	> 100 µM	> 100 µM	> 100 µM	> 100 µM	> 100 µM	> 100 µM	> 100 µM										
O=C(O)CCNc1ncnc2nc[nH]c12	> 100 µM	> 100 µM	> 100 µM	> 100 µM	> 100 µM	> 100 µM	> 100 µM	> 100 µM	> 100 µM	> 100 µM										
CC(C)SC(=S)Sc1c(Cl)c(Cl)nc(Cl)c1Cl	5.61 µM	12.7 µM	> 100 µM	10.7 µM	11.3 µM	24.1 µM	33.1 µM	26.7 µM	30.1 µM	8.49 µM										
O=C1c2cc(-c3ccccc3)cnc2S(=O)(=O)N1c1ccc(Br)cc1	> 100 µM	39.5 µM	> 100 µM		35 µM	> 100 µM	> 100 µM	> 100 µM	96.9 µM	> 100 µM										
O=S(=O)(O)C(CO)c1ccccc1 (stereo unspecified) (tested in a mixture with another compound)	> 44.5 µM	> 100 µM	> 100 µM	> 100 µM	> 100 µM	> 100 µM	> 100 µM	> 100 µM	> 100 µM	> 100 µM										
Oc1cc(Cl)cc2cccnc12	0.727 µM	> 70 µM	> 100 µM	2.66 µM	4.27 µM	7.49 µM	> 100 µM	> 37.4 µM	54.5 µM	> 100 µM										
CC1(C)OC[C@@H](O)[C@H](C#N)CO1	> 100 µM	> 100 µM	> 100 µM	> 100 µM	> 100 µM	> 100 µM	> 100 µM	> 100 µM	> 100 µM	> 100 µM										
O=c1oc2cc(O)ccc2c(O)c1C(c1ccccc1)c1c(O)c2ccc(O)cc2oc1=O	> 100 µM	> 100 µM	> 100 µM	> 100 µM	> 100 µM	> 100 µM	> 100 µM	> 100 µM	> 100 µM	> 100 µM										
